Assay results taken from patent US9657351B2, “MRNA-based gene expression for personalizing patient cancer therapy with an MDM2 antagonist” (Hoffmann-La Roche Inc., priority 2013, dated 2017).

What was measured:
Experiment in all cases: COMPOUND A In Vitro Assay
Type in all cases: cell-based
5637 = settings: Homo sapiens, Urinary, bladder, TP53 Mutant
In short: (§1)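 For this panel of human cancer lines, COMPOUND A was applied in high-throughput screening assays and responses were converted to IC50. A line was considered sensitive when its IC50 was no more than 1, and resistant when it reached 10 or above.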

647-V = settings: Homo sapiens, Urinary tract, urothelium, TP53 Mutant
In short: as §1

A2058 = settings: Homo sapiens, Skin, TP53 Mutant
In short: as §1

CAMA-1 = settings: Homo sapiens, Breast, mammary gland, TP53 Mutant
In short: as §1

CEM/C2 = settings: Homo sapiens, Lymphocyte T, peripheral blood, TP53 Mutant
In short: as §1

HCT-8 = settings: Homo sapiens, Intestine, large, colon, TP53 Wild type
In short: as §1

HT-1080 = settings: Homo sapiens
In short: as §1

Hs 38•T = settings: Homo sapiens
In short: as §1

Hs 578T = settings: Homo sapiens, Breast, mammary gland, TP53 Mutant
In short: as §1

Hs 766T = settings: Homo sapiens, Hs766T, Pancreas, TP53 Mutant
In short: as §1

HuH-28 = settings: Homo sapiens, Gall bladder, TP53 Mutant
In short: as §1

J82 = settings: Homo sapiens, Urinary, bladder, TP53 Mutant
In short: as §1

KMS-20 = settings: Homo sapiens, Lymphocyte, TP53 Mutant
In short: as §1

LNCaP clone FGC = settings: Homo sapiens
In short: as §1

MDA-MB-157 = settings: Homo sapiens, Breast, mammary gland, TP53 Mutant
In short: as §1

NCI-H1703 = settings: Homo sapiens, Lung, TP53 Mutant
In short: as §1

NCI-H23 = settings: Homo sapiens, Lung, TP53 NA
In short: as §1

NCI-H250 = settings: Homo sapiens, Lung, TP53 NA
In short: as §1

NCI-H441 = settings: Homo sapiens, Lung, TP53 Mutant
In short: as §1

NCI-H596 = settings: Homo sapiens, Lung, TP53 Mutant
In short: as §1

NCI-H82 = settings: Homo sapiens, Lung, TP53 Wild type
In short: as §1

NCI-H838 = settings: Homo sapiens, Lung, TP53 Mutant
In short: as §1

PANC-1 = settings: Homo sapiens, Pancreas, TP53 Mutant
In short: as §1

QG-56 = settings: Homo sapiens, Lung, TP53 Mutant
In short: as §1

SCaBER = settings: Homo sapiens, Urinary, bladder, TP53 Mutant
In short: as §1

SK-LU-1 = settings: Homo sapiens, Lung, TP53 Mutant
In short: as §1

SK-MEL-1 = settings: Homo sapiens
In short: as §1

SNU-5 = settings: Homo sapiens, Stomach, TP53 Mutant
In short: as §1

SR = settings: Homo sapiens, Lymphocyte, TP53 Wild type
In short: as §1

SW780 = settings: Homo sapiens
In short: as §1

T84 = settings: Homo sapiens, Intestine, large, colon, TP53 Mutant
In short: as §1

U-138 MG = settings: Homo sapiens, U138-MG, Brain, TP53 Mutant
In short: as §1

U266B1 = settings: Homo sapiens
In short: as §1

WERI-Rb-1 = settings: Homo sapiens
In short: as §1

Y79 = settings: Homo sapiens
In short: as §1

## CCOc1cc(C(C)(C)C)ccc1C1=N[C@@](C)(c2ccc(Cl)cc2)[C@@](C)(c2ccc(Cl)cc2)N1C(=O)N1CCN(CCCS(C)(=O)=O)CC1 [COMPOUND A]
5637
  IC50: 8.5 µM
647-V
  IC50: 17 µM
A2058
  IC50: 17 µM
CAMA-1
  IC50: 22 µM
CEM/C2
  IC50: 9.3 µM
HCT-8
  IC50: 16 µM
HT-1080; HT-1080, HT-1080, Connective tissue, TP53 Wild type
  IC50: 0.058 µM
HT-1080; HT-1080, HT-1080 cells
  IC50: 0.1 µM
Hs 38•T; Hs 38•T cells
  IC50: 0.7 µM
Hs 38•T; Hs 38•T, Ovary, TP53 Wild type
  IC50: 0.73 µM
Hs 578T
  IC50: 8.8 µM
Hs 766T
  IC50: 17 µM
HuH-28
  IC50: 15 µM
J82
  IC50: 20 µM
KMS-20
  IC50: 13 µM
LNCaP clone FGC; LNCaP clone FGC cells
  IC50: 0.2 µM
LNCaP clone FGC; LNCaP clone FGC, tissue NA, TP53 Wild type
  IC50: 0.17 µM
MDA-MB-157
  IC50: 20 µM
NCI-H1703
  IC50: 9.1 µM
NCI-H23
  IC50: 10 µM
NCI-H250
  IC50: 12 µM
NCI-H441
  IC50: 10 µM
NCI-H596
  IC50: 18 µM
NCI-H82
  IC50: 4.9 µM
NCI-H838
  IC50: 14 µM
PANC-1
  IC50: 22 µM
QG-56
  IC50: 10 µM
SCaBER
  IC50: 8.5 µM
SK-LU-1
  IC50: 11 µM
SK-MEL-1; SK-MEL-1, SK-MEL-1, Skin, TP53 Wild type
  IC50: 0.75 µM
SK-MEL-1; SK-MEL-1, SK-MEL-1 cells
  IC50: 0.8 µM
SNU-5
  IC50: 16 µM
SR
  IC50: 0.043 µM
SW780; SW780, SW780, Urinary, bladder, TP53 Wild type
  IC50: 0.97 µM
SW780; SW780, SW780 cells
  IC50: 1 µM
T84
  IC50: 5.3 µM
U-138 MG
  IC50: 29 µM
U266B1; U266B1, Lymphocyte B, TP53 Mutant
  IC50: 18 µM
U266B1; U266B1 cells
  IC50: 18 µM
WERI-Rb-1; WERI-Rb-1, Eye, retina, TP53 Wild type
  IC50: 0.67 µM
WERI-Rb-1; WERI-Rb-1 cells
  IC50: 0.7 µM
Y79; Y79, Y79, Eye, retina, TP53 Wild type
  IC50: 0.61 µM
Y79; Y79, Y79 cells
  IC50: 0.6 µM
